Measurements from patent US20240189388A1, “MEDICATION FOR TREATING LUNG INJURY” (SHANGHAI SEME CELL TECHNOLOGY CO., LTD., priority 2021, published 2024).

Tested on: LPS-induced acute respiratory distress syndrome
Experiment: BALF neutrophil count and percentage, LPS-induced ARDS rat model (Example 1)
Format: in vivo, SD rats
Protocol: Normal adult male SD rats were randomly grouped, 5 rats in each group. The animals were intraperitoneally injected and nebulized in the trachea with lipopolysaccharides (LPS) as a modeling reagent, as shown in Table 1:
The animals in groups G1 and G2 were intraperitoneally injected with lipopolysaccharides (0.8 mg/kg. body weight) according to their body weight, anesthetized by inhaling isoflurane after 16 h of the intraperitoneal injection, and nebulized with lipopolysaccharides (5 mg/kg. body weight) in the trachea.
Intraperitoneal injection with lipopolysaccharides (LPS): According to the body weight of the animals, each animal was administered with lipopolysaccharides by intraperitoneal injection with a disposable micro syringe.
Intratracheal nebulization with lipopolysaccharides (LPS): Each animal was anesthetized by inhaling isoflurane and then fixed on a rat fixator placed at a 45° angle, the root of the animal's tongue was pressed by a small animal anesthesia laryngoscope to expose the glottis, a pulmonary micro liquid nebulizer needle (blunt) that extracted a quantitative solution of LPS was gently inserted into the trachea, then the piston was quickly pushed to atomize the LPS solution into the lung, the needle was quickly pulled out, and the animal was taken down from the fixator and rotated left and right with its head facing upwards to distribute LPS as evenly as possible in each lung lobe.
The animals were administered for the first time within 1 h after the intratracheal nebulization with the modeling reagent (LPS), and the second time after 24 h.
The day after the end of the second administration (48 h after the intratracheal nebulization with the modeling reagent).
Collection of samples: On the day after the second administration, all groups of animals were euthanized with CO2, then their abdominal cavities were opened, and their abdominal arteries were cut for bleeding. […] Precipitated cells were re-suspended with 1 ML PBS, and total cells in the BALF were counted by a blood cell counter and trypan blue staining. […]

[1] = G2 mean, 5 rats, 1 mg/kg caudal vein injection twice, 48 h after LPS nebulization

Annexin A5
Effect on count of neutrophils (Neu cells) in the BALF (G2 compared to model control group G1): significantly inhibited
Neu cell counts in the BALF [1]: 7.03 *10^6
Percentages of Neu cells in the BALF [1]: 36.80%
